In brackets after ≈: the same amount, converted by molar mass.

Assay [1] relates to Staphylococcus aureus. The assay can be described thus: Antibacterial activity against Staphylococcus aureus. The assay is classed as functional.
Assay [2] has as its system Escherichia coli. The assay can be described thus: Antibacterial activity against Escherichia coli at </=64 ug/mL; No activity. The format is functional, organism-based.
Assay [3] deals with Enterococcus faecalis. Description: Antibacterial activity against Enterococcus faecalis. The format is functional.
The test system of assay [4] is Mus musculus. The assay can be described thus: Antibacterial activity against Staphylococcus aureus infection in mouse after i.v. administration (Vancomycin, ED50= 1.0 mg/kg ). The format is functional. Conditions: route intravenous.
The subject of assay [5] is Staphylococcus aureus. Description: Antibacterial activity against Staphylococcus aureus; Range is 1-2. The format is functional.
In assay [6] the test system is Enterococcus faecalis. Description: Antibacterial activity against Enterococcus faecalis; Range is 16-32. The format is functional.
The subject of assay [7] is Staphylococcus aureus. The assay can be described thus: Antibacterial activity against Staphylococcus aureus; Range is 4-8. The format is functional.

`C[C@@H](c1ccccc1)[C@@H]1NC(=O)CNC(=O)[C@H](CO)NC(=O)[C@@H]([C@@H](O)[C@@H]2CNC(N)N2[C@H]2O[C@H](COC(=O)C(c3ccccc3)c3ccccc3)[C@@H](O)[C@H](O)[C@@H]2O)NC(=O)[C@H]([C@@H](O)[C@@H]2CNC(N)N2)NC(=O)[C@@H](Cc2ccc(O[C@H]3O[C@H](CO)[C@@H](O[C@H]4O[C@H](CO)[C@@H](O)[C@H](O)[C@@H]4O)[C@H](O)[C@@H]3O)cc2)NC1=O` (stereo not given in full): the results for the MIC in assay [1], in assay [2] and in assay [3] were above 64 µg/mL, “No activity” and above 64 µg/mL, respectively.

`CCCCCCC(=O)OC[C@H]1O[C@H](N2C(N)NC[C@H]2[C@H](O)[C@H]2NC(=O)[C@H]([C@@H](O)[C@@H]3CNC(N)N3)NC(=O)[C@@H](Cc3ccc(O[C@H]4O[C@H](CO)[C@@H](O[C@H]5O[C@H](CO)[C@@H](O)[C@H](O)[C@@H]5O)[C@H](O)[C@@H]4O)cc3)NC(=O)[C@H]([C@@H](C)c3ccccc3)NC(=O)CNC(=O)[C@H](CO)NC2=O)[C@@H](O)[C@@H](O)[C@@H]1O` (stereo not given in full): the MIC was above 64 µg/mL in assay [1], “No activity” in assay [2] and above 64 µg/mL in assay [3].

Take `CCCCCCC(=O)OC[C@@H]1NC(=O)[C@@H]([C@@H](O)[C@@H]2CNC(N)N2[C@H]2O[C@H](CO)[C@@H](O)[C@H](O)[C@@H]2O)NC(=O)[C@H]([C@@H](O)[C@@H]2CNC(N)N2)NC(=O)[C@@H](Cc2ccc(O[C@H]3O[C@H](CO)[C@@H](O[C@H]4O[C@H](CO)[C@@H](O)[C@H](O)[C@@H]4O)[C@H](O)[C@@H]3O)cc2)NC(=O)[C@H]([C@@H](C)c2ccccc2)NC(=O)CNC1=O` (stereo not given in full): in assay [2], the MIC entry was “No activity”.

For the compound `CCCC(CCC)C(=O)OC[C@H]1O[C@H](N2C(N)NC[C@H]2[C@H](O)[C@H]2NC(=O)[C@H]([C@@H](O)[C@@H]3CNC(N)N3)NC(=O)[C@@H](Cc3ccc(O[C@H]4O[C@H](CO)[C@@H](O[C@H]5O[C@H](CO)[C@@H](O)[C@H](O)[C@@H]5O)[C@H](O)[C@@H]4O)cc3)NC(=O)[C@H]([C@@H](C)c3ccccc3)NC(=O)CNC(=O)[C@H](CO)NC2=O)[C@@H](O)[C@@H](O)[C@@H]1O` (stereo not given in full), the MIC entry in assay [2] is “No activity”.

On to `CCCC(CCC)C(=O)OC[C@H]1O[C@H](O[C@H]2[C@H](O)[C@H](O)[C@@H](Oc3ccc(C[C@H]4NC(=O)[C@H]([C@@H](C)c5ccccc5)NC(=O)CNC(=O)[C@H](CO)NC(=O)[C@@H]([C@@H](O)[C@@H]5CNC(N)N5[C@H]5O[C@H](CO)[C@@H](O)[C@H](O)[C@@H]5O)NC(=O)[C@H]([C@@H](O)[C@@H]5CNC(N)N5)NC4=O)cc3)O[C@@H]2CO)[C@@H](O)[C@@H](O)[C@@H]1O` (stereo not given in full), for which the values for the MIC result in assay [2], in assay [3] and in assay [5] were “No activity”, 4 µg/mL (≈ 2.81 µM) and 2 µg/mL (≈ 1.4 µM), respectively. This compound also came in with an ED50 in assay [4] of 0.52 mg/kg.

Consider `C[C@@H](c1ccccc1)[C@@H]1NC(=O)CNC(=O)[C@H](CO)NC(=O)[C@@H]([C@@H](O)[C@@H]2CNC(N)N2[C@H]2O[C@H](COC(=O)Cc3ccccc3)[C@@H](O)[C@H](O)[C@@H]2O)NC(=O)[C@H]([C@@H](O)[C@@H]2CNC(N)N2)NC(=O)[C@@H](Cc2ccc(O[C@H]3O[C@H](CO)[C@@H](O[C@H]4O[C@H](CO)[C@@H](O)[C@H](O)[C@@H]4O)[C@H](O)[C@@H]3O)cc2)NC1=O` (stereo not given in full), for which the MIC result in assay [2] is “No activity”.

Take `CCCC(CCC)C(=O)OC[C@@H]1NC(=O)[C@@H]([C@@H](O)[C@@H]2CNC(N)N2[C@H]2O[C@H](CO)[C@@H](O)[C@H](O)[C@@H]2O)NC(=O)[C@H]([C@@H](O)[C@@H]2CNC(N)N2)NC(=O)[C@@H](Cc2ccc(O[C@H]3O[C@H](CO)[C@@H](O[C@H]4O[C@H](CO)[C@@H](O)[C@H](O)[C@@H]4O)[C@H](O)[C@@H]3O)cc2)NC(=O)[C@H]([C@@H](C)c2ccccc2)NC(=O)CNC1=O` (stereo not given in full): the MIC result in assay [2] is “No activity”.

As to `C[C@@H](c1ccccc1)[C@@H]1NC(=O)CNC(=O)[C@H](CO)NC(=O)[C@@H]([C@@H](O)[C@@H]2CNC(N)N2[C@H]2O[C@H](COC(=O)CCC3CCCC3)[C@@H](O)[C@H](O)[C@@H]2O)NC(=O)[C@H]([C@@H](O)[C@@H]2CNC(N)N2)NC(=O)[C@@H](Cc2ccc(O[C@H]3O[C@H](CO)[C@@H](O[C@H]4O[C@H](CO)[C@@H](O)[C@H](O)[C@@H]4O)[C@H](O)[C@@H]3O)cc2)NC1=O` (stereo not given in full), the MIC in assay [1] was above 64 µg/mL; in assay [2], “No activity”; in assay [3], above 64 µg/mL.

Turning to `CC(C)CC(=O)O[C@H]1[C@H](O)[C@H](O)[C@@H](O[C@H]2[C@H](O)[C@H](O)[C@@H](Oc3ccc(C[C@H]4NC(=O)[C@H]([C@@H](C)c5ccccc5)NC(=O)CNC(=O)[C@H](CO)NC(=O)[C@@H]([C@@H](O)[C@@H]5CNC(N)N5[C@H]5O[C@H](CO)[C@@H](O)[C@H](O)[C@@H]5O)NC(=O)[C@H]([C@@H](O)[C@@H]5CNC(N)N5)NC4=O)cc3)O[C@@H]2CO)O[C@@H]1CO` (stereo not given in full), the MIC in assay [1] is 4 µg/mL (≈ 2.89 µM); in assay [2], “No activity”; in assay [6], 32 µg/mL (≈ 23.1 µM). Besides, the 50% effect level in assay [4] (ED50) was put at a dose of 0.6 mg/kg.

Regarding `C[C@@H](c1ccccc1)[C@@H]1NC(=O)CNC(=O)[C@H](COC(=O)CCC2CCCC2)NC(=O)[C@@H]([C@@H](O)[C@@H]2CNC(N)N2[C@H]2O[C@H](CO)[C@@H](O)[C@H](O)[C@@H]2O)NC(=O)[C@H]([C@@H](O)[C@@H]2CNC(N)N2)NC(=O)[C@@H](Cc2ccc(O[C@H]3O[C@H](CO)[C@@H](O[C@H]4O[C@H](CO)[C@@H](O)[C@H](O)[C@@H]4O)[C@H](O)[C@@H]3O)cc2)NC1=O` (stereo not given in full), the MIC is above 64 µg/mL in assay [1], “No activity” in assay [2] and above 64 µg/mL in assay [3].

Consider `CC(C)CC(=O)O[C@@H]1[C@H](O)[C@@H](O[C@H]2[C@H](O)[C@H](O)[C@@H](Oc3ccc(C[C@H]4NC(=O)[C@H]([C@@H](C)c5ccccc5)NC(=O)CNC(=O)[C@H](CO)NC(=O)[C@@H]([C@@H](O)[C@@H]5CNC(N)N5[C@H]5O[C@H](CO)[C@@H](O)[C@H](O)[C@@H]5O)NC(=O)[C@H]([C@@H](O)[C@@H]5CNC(N)N5)NC4=O)cc3)O[C@@H]2CO)O[C@H](CO)[C@H]1O` (stereo not given in full), for which the MIC result is “No activity” in assay [2], 8 µg/mL (≈ 5.78 µM) in assay [7] and 64 µg/mL (≈ 46.3 µM) in assay [3]. In assay [4], this compound displayed an ED50 of 2.6 mg/kg.

For `C[C@@H](c1ccccc1)[C@@H]1NC(=O)CNC(=O)[C@H](COC(=O)C(c2ccccc2)c2ccccc2)NC(=O)[C@@H]([C@@H](O)[C@@H]2CNC(N)N2[C@H]2O[C@H](CO)[C@@H](O)[C@H](O)[C@@H]2O)NC(=O)[C@H]([C@@H](O)[C@@H]2CNC(N)N2)NC(=O)[C@@H](Cc2ccc(O[C@H]3O[C@H](CO)[C@@H](O[C@H]4O[C@H](CO)[C@@H](O)[C@H](O)[C@@H]4O)[C@H](O)[C@@H]3O)cc2)NC1=O` (stereo not given in full), the MIC in assay [1] was above 64 µg/mL; in assay [2], “No activity”; in assay [3], above 64 µg/mL.

As for `C[C@@H](c1ccccc1)[C@@H]1NC(=O)CNC(=O)[C@H](COC(=O)Cc2ccccc2)NC(=O)[C@@H]([C@@H](O)[C@@H]2CNC(N)N2[C@H]2O[C@H](CO)[C@@H](O)[C@H](O)[C@@H]2O)NC(=O)[C@H]([C@@H](O)[C@@H]2CNC(N)N2)NC(=O)[C@@H](Cc2ccc(O[C@H]3O[C@H](CO)[C@@H](O[C@H]4O[C@H](CO)[C@@H](O)[C@H](O)[C@@H]4O)[C@H](O)[C@@H]3O)cc2)NC1=O` (stereo not given in full), the MIC result in assay [2] is “No activity”.

As for `C[C@@H](c1ccccc1)[C@@H]1NC(=O)CNC(=O)[C@H](CO)NC(=O)[C@@H]([C@@H](O)[C@@H]2CNC(N)N2[C@H]2O[C@H](CO)[C@@H](O)[C@H](O)[C@@H]2O)NC(=O)[C@H]([C@@H](O)[C@@H]2CNC(N)N2)NC(=O)[C@@H](Cc2ccc(O[C@H]3O[C@H](COC(=O)CCC4CCCC4)[C@@H](O[C@H]4O[C@H](CO)[C@@H](O)[C@H](O)[C@@H]4O)[C@H](O)[C@@H]3O)cc2)NC1=O` (stereo not given in full), the MIC in assay [1] was 2 µg/mL (≈ 1.4 µM); in assay [2] it was “No activity”; in assay [3] it was 8 µg/mL (≈ 5.62 µM).

Take `C[C@@H](c1ccccc1)[C@@H]1NC(=O)CNC(=O)[C@H](CO)NC(=O)[C@@H]([C@@H](O)[C@@H]2CNC(N)N2[C@H]2O[C@H](CO)[C@@H](O)[C@H](O)[C@@H]2O)NC(=O)[C@H]([C@@H](O)[C@@H]2CNC(N)N2)NC(=O)[C@@H](Cc2ccc(O[C@H]3O[C@H](CO)[C@@H](O[C@H]4O[C@H](COC(=O)CCC5CCCC5)[C@@H](O)[C@H](O)[C@@H]4O)[C@H](O)[C@@H]3O)cc2)NC1=O` (stereo not given in full): the results for the MIC in assay [1], in assay [2] and in assay [3] were 1 µg/mL (≈ 0.702 µM), “No activity” and 4 µg/mL (≈ 2.81 µM), respectively.

Take `CCCCCC(=O)OC[C@H]1O[C@H](N2C(N)NC[C@H]2[C@H](O)[C@H]2NC(=O)[C@H]([C@@H](O)[C@@H]3CNC(N)N3)NC(=O)[C@@H](Cc3ccc(O[C@H]4O[C@H](CO)[C@@H](O[C@H]5O[C@H](CO)[C@@H](O)[C@H](O)[C@@H]5O)[C@H](O)[C@@H]4O)cc3)NC(=O)[C@H]([C@@H](C)c3ccccc3)NC(=O)CNC(=O)[C@H](CO)NC2=O)[C@@H](O)[C@@H](O)[C@@H]1O` (stereo not given in full): the MIC in assay [1] is above 64 µg/mL; in assay [2], “No activity”; in assay [3], above 64 µg/mL.

`CCCCCC(=O)OC[C@@H]1NC(=O)[C@@H]([C@@H](O)[C@@H]2CNC(N)N2[C@H]2O[C@H](CO)[C@@H](O)[C@H](O)[C@@H]2O)NC(=O)[C@H]([C@@H](O)[C@@H]2CNC(N)N2)NC(=O)[C@@H](Cc2ccc(O[C@H]3O[C@H](CO)[C@@H](O[C@H]4O[C@H](CO)[C@@H](O)[C@H](O)[C@@H]4O)[C@H](O)[C@@H]3O)cc2)NC(=O)[C@H]([C@@H](C)c2ccccc2)NC(=O)CNC1=O` (stereo not given in full): the MIC result in assay [2] is “No activity”.

On to `C[C@@H](c1ccccc1)[C@@H]1NC(=O)CNC(=O)[C@H](CO)NC(=O)[C@@H]([C@@H](O)[C@@H]2CNC(N)N2[C@H]2O[C@H](CO)[C@@H](O)[C@H](O)[C@@H]2O)NC(=O)[C@H]([C@@H](O)[C@@H]2CNC(N)N2)NC(=O)[C@@H](Cc2ccc(O[C@H]3O[C@H](CO)[C@@H](O[C@H]4O[C@H](CO)[C@@H](O)[C@H](O)[C@@H]4O)[C@H](O)[C@@H]3O)cc2)NC1=O` (stereo not given in full), for which the MIC in assay [1] was above 64 µg/mL; in assay [2], “No activity”; in assay [3], above 64 µg/mL.

Values taken from ChEMBL document CHEMBL1146703, “Mannopeptimycin esters and carbonates, potent antibiotic agents against drug-resistant bacteria” (2004).
